Measured values from the NIST ThermoML archive (doi:10.1021/je900722m).
± gives the expanded uncertainty stated by the source.

Assay: xn = mol fraction of the nth substance listed
Details: 101 kPa, Liquid

CC(C)(C)O [2-methylpropan-2-ol] + CCCCO
Details	mass density [kg/m3]	viscosity [mPa·s]
308.15 K, x2 = 0.1017	774.752 ± 0.51	3.438 ± 0.057
308.15 K, x2 = 0.2006	778.293 ± 0.5	3.374 ± 0.056
308.15 K, x2 = 0.3008	781.316 ± 0.49	3.302 ± 0.055
308.15 K, x2 = 0.4005	784.068 ± 0.48	3.22 ± 0.054
308.15 K, x2 = 0.5011	786.651 ± 0.47	3.125 ± 0.053
308.15 K, x2 = 0.6002	789.119 ± 0.47	3.021 ± 0.051
308.15 K, x2 = 0.6975	791.52 ± 0.46	2.912 ± 0.049
308.15 K, x2 = 0.7987	793.957 ± 0.46	2.791 ± 0.047
308.15 K, x2 = 0.8978	796.247 ± 0.45	2.667 ± 0.045
313.15 K, x2 = 0.1017	769.698 ± 0.52	2.787 ± 0.047
313.15 K, x2 = 0.2006	773.439 ± 0.51	2.763 ± 0.047
313.15 K, x2 = 0.3008	776.66 ± 0.5	2.733 ± 0.046
313.15 K, x2 = 0.4005	779.566 ± 0.49	2.693 ± 0.046
313.15 K, x2 = 0.5011	782.289 ± 0.48	2.64 ± 0.045
313.15 K, x2 = 0.6002	784.884 ± 0.48	2.577 ± 0.044
313.15 K, x2 = 0.6975	787.385 ± 0.47	2.508 ± 0.043
313.15 K, x2 = 0.7987	789.899 ± 0.47	2.429 ± 0.041
313.15 K, x2 = 0.8978	792.264 ± 0.46	2.347 ± 0.04
318.15 K, x2 = 0.1017	764.541 ± 0.53	2.299 ± 0.039
318.15 K, x2 = 0.2006	768.484 ± 0.52	2.302 ± 0.039
318.15 K, x2 = 0.3008	771.902 ± 0.51	2.298 ± 0.039
318.15 K, x2 = 0.4005	774.974 ± 0.5	2.284 ± 0.039
318.15 K, x2 = 0.5011	777.844 ± 0.49	2.258 ± 0.039
318.15 K, x2 = 0.6002	780.565 ± 0.48	2.223 ± 0.038
318.15 K, x2 = 0.6975	783.18 ± 0.48	2.182 ± 0.037
318.15 K, x2 = 0.7987	785.795 ± 0.47	2.131 ± 0.037
318.15 K, x2 = 0.8978	788.241 ± 0.47	2.076 ± 0.036
323.15 K, x2 = 0.1017	759.283 ± 0.54	1.922 ± 0.033
323.15 K, x2 = 0.2006	763.421 ± 0.53	1.942 ± 0.034
323.15 K, x2 = 0.3008	767.037 ± 0.51	1.956 ± 0.034
323.15 K, x2 = 0.4005	770.272 ± 0.51	1.957 ± 0.034
323.15 K, x2 = 0.5011	773.307 ± 0.5	1.95 ± 0.034
323.15 K, x2 = 0.6002	776.162 ± 0.49	1.934 ± 0.034
323.15 K, x2 = 0.6975	778.901 ± 0.49	1.91 ± 0.033
323.15 K, x2 = 0.7987	781.617 ± 0.48	1.877 ± 0.033
323.15 K, x2 = 0.8978	784.158 ± 0.47	1.841 ± 0.032
328.15 K, x2 = 0.1017	753.923 ± 0.55	1.635 ± 0.029
328.15 K, x2 = 0.2006	758.252 ± 0.54	1.666 ± 0.029
328.15 K, x2 = 0.3008	762.068 ± 0.52	1.69 ± 0.03
328.15 K, x2 = 0.4005	765.483 ± 0.51	1.704 ± 0.03
328.15 K, x2 = 0.5011	768.677 ± 0.51	1.709 ± 0.03
328.15 K, x2 = 0.6002	771.695 ± 0.5	1.704 ± 0.03
328.15 K, x2 = 0.6975	774.542 ± 0.49	1.692 ± 0.03
328.15 K, x2 = 0.7987	777.372 ± 0.49	1.672 ± 0.029
328.15 K, x2 = 0.8978	780.002 ± 0.48	1.65 ± 0.029
333.15 K, x2 = 0.1017	748.453 ± 0.56	1.406 ± 0.025
333.15 K, x2 = 0.2006	752.974 ± 0.55	1.439 ± 0.026
333.15 K, x2 = 0.3008	756.986 ± 0.53	1.466 ± 0.026
333.15 K, x2 = 0.4005	760.579 ± 0.52	1.486 ± 0.026
333.15 K, x2 = 0.5011	763.946 ± 0.52	1.5 ± 0.027
333.15 K, x2 = 0.6002	767.111 ± 0.51	1.504 ± 0.027
333.15 K, x2 = 0.6975	770.1 ± 0.5	1.501 ± 0.027
333.15 K, x2 = 0.7987	773.05 ± 0.49	1.492 ± 0.026
333.15 K, x2 = 0.8978	775.796 ± 0.49	1.478 ± 0.026
338.15 K, x2 = 0.1017	742.882 ± 0.57	1.221 ± 0.022
338.15 K, x2 = 0.2006	747.587 ± 0.56	1.254 ± 0.023
338.15 K, x2 = 0.3008	751.795 ± 0.54	1.282 ± 0.023
338.15 K, x2 = 0.4005	755.568 ± 0.53	1.306 ± 0.023
338.15 K, x2 = 0.5011	759.113 ± 0.52	1.324 ± 0.024
338.15 K, x2 = 0.6002	762.433 ± 0.52	1.335 ± 0.024
338.15 K, x2 = 0.6975	765.569 ± 0.51	1.339 ± 0.024
338.15 K, x2 = 0.7987	768.651 ± 0.5	1.34 ± 0.024
338.15 K, x2 = 0.8978	771.52 ± 0.5	1.335 ± 0.024
343.15 K, x2 = 0.1017	737.201 ± 0.58	1.07 ± 0.02
343.15 K, x2 = 0.2006	742.083 ± 0.57	1.103 ± 0.02
343.15 K, x2 = 0.3008	746.492 ± 0.55	1.131 ± 0.021
343.15 K, x2 = 0.4005	750.446 ± 0.54	1.156 ± 0.021
343.15 K, x2 = 0.5011	754.166 ± 0.53	1.177 ± 0.021
343.15 K, x2 = 0.6002	757.655 ± 0.53	1.191 ± 0.022
343.15 K, x2 = 0.6975	760.941 ± 0.52	1.2 ± 0.022
343.15 K, x2 = 0.7987	764.169 ± 0.51	1.207 ± 0.022
343.15 K, x2 = 0.8978	767.155 ± 0.51	1.208 ± 0.022
